Each structure is given as a SMILES string. Read-outs that look alike come from different tables or passages of the source.

The values that follow come from paper PMC5893361 (International Journal for Parasitology, 2018).

The target in experiment [1] is T1, Pry1 (Saccharomyces cerevisiae, UniProt P47032).
T1 construct: construct not described here (full length secreted protein or CAP domain)
T1 sequence (P47032 20-299): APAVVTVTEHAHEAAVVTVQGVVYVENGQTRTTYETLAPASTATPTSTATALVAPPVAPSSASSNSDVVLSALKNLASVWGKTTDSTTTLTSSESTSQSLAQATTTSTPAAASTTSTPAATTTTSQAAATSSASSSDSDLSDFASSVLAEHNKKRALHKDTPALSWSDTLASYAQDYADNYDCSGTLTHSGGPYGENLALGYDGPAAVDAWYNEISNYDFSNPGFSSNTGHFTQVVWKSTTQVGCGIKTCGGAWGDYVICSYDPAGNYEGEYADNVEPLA
Put plainly: radioligand saturation binding, Q-sepharose adsorption.

In experiment [2] the target is T2, BmVAL-1 (Brugia malayi, UniProt A0A0J9Y762).
T2 construct: gene bma-scl-11.3; mature protein without 16-residue signal peptide, two vector-derived C-terminal residues; 206 residues; secreted from Nicotiana benthamiana; N-glycosylated at N52 and N138
T2 sequence (A0A0J9Y762 entry or part of it): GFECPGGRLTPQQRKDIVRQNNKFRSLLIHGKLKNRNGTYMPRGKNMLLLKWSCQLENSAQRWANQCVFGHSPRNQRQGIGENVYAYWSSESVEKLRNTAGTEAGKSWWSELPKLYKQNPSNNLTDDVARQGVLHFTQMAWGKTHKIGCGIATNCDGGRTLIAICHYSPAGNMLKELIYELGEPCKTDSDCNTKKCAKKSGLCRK
The description is as above.

As to `CC(C)CCC[C@@H](C)[C@H]1CC[C@H]2[C@@H]3CC=C4C[C@@H](O)CC[C@]4(C)[C@H]3CC[C@]12C` [cholesterol], the Kd came out at 1900 nM in experiment [1] and 990 nM in experiment [2].

Regarding `CCCCCCCCCCCCCCCC(=O)O` [palmitate], the Kd in experiment [2] (read-out: Kd) came to 83000 nM.
